Results reported in patent US8367830B2, “Methods for the identification of phosphatidylinositol kinase interacting molecules and for the purification of phosphatidylinositol kinase proteins” (Cellzome AG, priority 2009, dated 2013).

Tests used:
[1] = target: T1, DNAPK (Homo sapiens, UniProt P78527); test: Kinobeads competition binding, immobilized CZC31207, HeLa/placenta lysate mix; set-up: endogenous in cells; host or cells: mixed lysate of HeLa cells and placenta; details: 10 μM free compound; mixed HeLa and placenta cell lysates
T1 sequence (P78527 whole entry): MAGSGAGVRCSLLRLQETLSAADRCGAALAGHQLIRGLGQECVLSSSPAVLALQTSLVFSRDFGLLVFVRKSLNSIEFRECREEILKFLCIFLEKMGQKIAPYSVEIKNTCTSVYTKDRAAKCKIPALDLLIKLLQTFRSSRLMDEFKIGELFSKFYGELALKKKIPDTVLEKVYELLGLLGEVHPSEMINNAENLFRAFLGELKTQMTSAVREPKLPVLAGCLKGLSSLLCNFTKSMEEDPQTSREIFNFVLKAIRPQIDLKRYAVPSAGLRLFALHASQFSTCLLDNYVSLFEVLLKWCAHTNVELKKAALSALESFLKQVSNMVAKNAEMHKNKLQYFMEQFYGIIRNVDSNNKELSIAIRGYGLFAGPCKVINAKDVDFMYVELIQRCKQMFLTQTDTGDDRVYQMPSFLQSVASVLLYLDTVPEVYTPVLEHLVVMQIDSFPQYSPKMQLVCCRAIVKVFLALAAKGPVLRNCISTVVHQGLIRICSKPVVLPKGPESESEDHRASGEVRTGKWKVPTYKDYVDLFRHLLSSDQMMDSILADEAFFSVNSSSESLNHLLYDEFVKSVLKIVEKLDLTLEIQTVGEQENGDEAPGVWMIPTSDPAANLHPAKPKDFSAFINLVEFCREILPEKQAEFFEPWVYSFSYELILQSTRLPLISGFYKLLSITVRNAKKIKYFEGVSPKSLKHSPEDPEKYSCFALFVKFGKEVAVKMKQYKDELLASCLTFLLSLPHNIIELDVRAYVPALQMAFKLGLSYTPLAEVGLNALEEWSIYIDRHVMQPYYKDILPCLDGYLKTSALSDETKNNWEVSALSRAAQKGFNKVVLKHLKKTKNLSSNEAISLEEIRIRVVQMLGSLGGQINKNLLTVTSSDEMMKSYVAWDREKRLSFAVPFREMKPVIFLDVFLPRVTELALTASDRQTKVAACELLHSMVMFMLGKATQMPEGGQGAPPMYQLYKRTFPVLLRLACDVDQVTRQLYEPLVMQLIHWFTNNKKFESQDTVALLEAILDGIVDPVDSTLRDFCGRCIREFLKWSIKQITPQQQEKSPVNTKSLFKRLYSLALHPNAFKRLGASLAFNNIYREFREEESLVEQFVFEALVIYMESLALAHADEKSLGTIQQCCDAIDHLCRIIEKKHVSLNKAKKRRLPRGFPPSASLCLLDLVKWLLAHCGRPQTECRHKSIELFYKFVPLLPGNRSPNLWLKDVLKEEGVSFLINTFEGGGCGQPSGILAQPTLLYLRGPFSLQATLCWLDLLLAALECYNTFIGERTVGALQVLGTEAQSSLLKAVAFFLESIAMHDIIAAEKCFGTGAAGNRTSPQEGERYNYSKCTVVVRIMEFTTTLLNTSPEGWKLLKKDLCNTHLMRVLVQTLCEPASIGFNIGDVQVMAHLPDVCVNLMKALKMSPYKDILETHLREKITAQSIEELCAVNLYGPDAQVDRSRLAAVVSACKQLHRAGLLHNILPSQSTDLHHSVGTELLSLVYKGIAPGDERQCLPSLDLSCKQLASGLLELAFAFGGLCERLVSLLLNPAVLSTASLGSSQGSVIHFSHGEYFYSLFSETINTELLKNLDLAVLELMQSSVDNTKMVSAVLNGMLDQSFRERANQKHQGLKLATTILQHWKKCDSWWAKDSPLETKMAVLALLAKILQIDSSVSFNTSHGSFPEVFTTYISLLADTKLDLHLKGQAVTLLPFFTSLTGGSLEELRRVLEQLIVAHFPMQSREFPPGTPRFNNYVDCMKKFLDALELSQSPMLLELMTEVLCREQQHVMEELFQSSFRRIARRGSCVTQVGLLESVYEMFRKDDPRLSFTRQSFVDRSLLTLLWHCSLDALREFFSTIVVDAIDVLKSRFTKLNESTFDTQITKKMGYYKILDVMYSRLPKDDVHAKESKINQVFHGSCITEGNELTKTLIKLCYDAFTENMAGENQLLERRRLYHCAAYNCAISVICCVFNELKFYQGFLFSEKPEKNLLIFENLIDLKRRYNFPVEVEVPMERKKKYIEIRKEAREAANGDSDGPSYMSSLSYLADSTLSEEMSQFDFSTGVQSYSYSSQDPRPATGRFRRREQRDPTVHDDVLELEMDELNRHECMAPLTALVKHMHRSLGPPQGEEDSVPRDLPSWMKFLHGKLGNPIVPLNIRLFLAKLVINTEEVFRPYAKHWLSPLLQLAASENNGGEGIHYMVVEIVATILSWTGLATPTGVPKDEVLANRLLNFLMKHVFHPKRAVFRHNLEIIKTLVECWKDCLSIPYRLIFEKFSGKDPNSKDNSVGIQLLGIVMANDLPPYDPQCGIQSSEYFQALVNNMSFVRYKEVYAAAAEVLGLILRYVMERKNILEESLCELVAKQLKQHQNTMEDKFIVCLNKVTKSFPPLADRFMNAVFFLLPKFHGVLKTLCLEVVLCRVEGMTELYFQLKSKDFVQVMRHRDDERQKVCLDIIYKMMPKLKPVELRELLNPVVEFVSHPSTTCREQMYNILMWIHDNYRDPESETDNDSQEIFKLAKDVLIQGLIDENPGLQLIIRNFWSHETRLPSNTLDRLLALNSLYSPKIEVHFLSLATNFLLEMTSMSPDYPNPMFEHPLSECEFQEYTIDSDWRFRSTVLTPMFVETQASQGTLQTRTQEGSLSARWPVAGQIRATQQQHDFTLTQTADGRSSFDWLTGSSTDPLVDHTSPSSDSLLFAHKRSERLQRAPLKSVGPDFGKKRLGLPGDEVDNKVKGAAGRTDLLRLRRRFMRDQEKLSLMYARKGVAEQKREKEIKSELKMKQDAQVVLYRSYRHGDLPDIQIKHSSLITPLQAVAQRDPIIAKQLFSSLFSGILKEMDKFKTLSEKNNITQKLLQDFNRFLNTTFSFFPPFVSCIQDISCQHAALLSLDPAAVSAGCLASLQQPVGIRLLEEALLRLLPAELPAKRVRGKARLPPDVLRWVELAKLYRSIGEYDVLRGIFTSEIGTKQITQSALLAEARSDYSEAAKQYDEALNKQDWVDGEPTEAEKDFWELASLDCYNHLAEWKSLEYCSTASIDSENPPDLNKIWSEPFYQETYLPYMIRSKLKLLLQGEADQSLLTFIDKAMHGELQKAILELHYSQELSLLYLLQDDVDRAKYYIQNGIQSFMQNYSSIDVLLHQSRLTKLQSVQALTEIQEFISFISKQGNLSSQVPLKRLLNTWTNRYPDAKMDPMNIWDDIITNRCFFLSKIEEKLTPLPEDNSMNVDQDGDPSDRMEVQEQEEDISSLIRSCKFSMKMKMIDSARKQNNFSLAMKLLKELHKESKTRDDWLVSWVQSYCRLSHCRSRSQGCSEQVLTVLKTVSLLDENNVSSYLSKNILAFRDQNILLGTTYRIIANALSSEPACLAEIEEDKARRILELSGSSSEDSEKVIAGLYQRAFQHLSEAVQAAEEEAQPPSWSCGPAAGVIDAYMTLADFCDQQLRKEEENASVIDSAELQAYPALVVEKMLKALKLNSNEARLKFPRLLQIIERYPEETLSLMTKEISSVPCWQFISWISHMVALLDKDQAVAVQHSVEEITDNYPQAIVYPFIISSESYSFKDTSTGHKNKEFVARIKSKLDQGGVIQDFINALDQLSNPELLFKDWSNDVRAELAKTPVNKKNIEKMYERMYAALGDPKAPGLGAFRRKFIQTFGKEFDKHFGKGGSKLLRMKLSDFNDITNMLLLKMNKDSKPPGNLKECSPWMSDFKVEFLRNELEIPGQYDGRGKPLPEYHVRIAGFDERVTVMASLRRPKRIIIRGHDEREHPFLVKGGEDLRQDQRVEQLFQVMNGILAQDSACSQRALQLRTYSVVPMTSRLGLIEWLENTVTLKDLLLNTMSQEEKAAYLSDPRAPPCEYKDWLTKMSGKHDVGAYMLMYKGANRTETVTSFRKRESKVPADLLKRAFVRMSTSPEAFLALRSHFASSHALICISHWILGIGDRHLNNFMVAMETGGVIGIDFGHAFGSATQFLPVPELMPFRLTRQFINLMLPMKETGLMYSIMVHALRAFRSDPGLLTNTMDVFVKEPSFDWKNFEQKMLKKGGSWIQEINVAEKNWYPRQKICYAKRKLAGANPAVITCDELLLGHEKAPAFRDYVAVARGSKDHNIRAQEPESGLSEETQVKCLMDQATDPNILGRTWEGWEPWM
Experimental: (§1) To the first aliquot of cell lysate 10 μM of the free compound (CZC31207) was added and allowed to bind to proteins in the lysate. Then the affinity matrix with the immobilized compound (Example 1) was added to capture proteins that were not interacting with the previously added free compound. Beads were separated from the lysate and bead bound proteins were eluted in SDS sample buffer and subsequently separated by SDS-Polyacrylamide gel electrophoresis (FIG. 4). Suitable gel bands were cut out and subjected to in-gel proteolytic digestion with trypsin. The second lysate aliquot was processed identically, however no free compound was added (DMSO solvent control). Peptides originating from samples 1 and 2 were labeled with iTRAQ reagents (iTRAQ 115 and iTRAQ 117) and the combined samples were analyzed with a nano-flow liquid chromatography system coupled online to a tandem mass spectrometer (LC-MS/MS) experiment followed by iTRAQ reporter ion quantification in the MS/MS spectra (Ross et al., 2004. Mol. Cell. Proteomics 3(12):1154-1169). Further experimental protocols can be found in WO2006/134056 and a previous publication (Bantscheff et al., 2007. Nature Biotechnology 25, 1035-1044).
(§2) Cells were homogenized in a Potter S homogenizer in lysis buffer: 50 mM Tris-HCl, 0.8% NP40, 5% glycerol, 150 mM NaCl, 1.5 mM MgCl2, 25 mM NaF, 1 mM sodium vanadate, 1 mM DTT, pH 7.5. One complete EDTA-free tablet (protease inhibitor cocktail, Roche Diagnostics, 1 873 580) per 25 ml buffer was added. The material was dounced 20 times using a mechanized POTTER S, transferred to 50 ml falcon tubes, incubated for 30 minutes rotating at 4° C. and spun down for 10 minutes at 20,000×g at 4° C. (10,000 rpm in Sorvall SLA600, precooled). The supernatant was transferred to an ultracentrifuge (UZ)-polycarbonate tube (Beckmann, 355654) and spun for 1 hour at 145.000×g at 4° C. […] The supernatant was transferred again to a fresh 50 ml falcon tube, the protein concentration was determined by a Bradford assay (BioRad) and samples containing 50 mg of protein per aliquot were prepared. […]

[2] = target: T2, PIK3Cd (Homo sapiens, UniProt O00329); test: as above; set-up: endogenous in cells; host or cells: mixed lysate of HeLa cells and placenta; details: 10 μM free compound; mixed HeLa and placenta cell lysates
Experimental: as §1, §2

[3] = target: T3, FRAP (Homo sapiens, UniProt P42345); test: as above; set-up: endogenous in cells; host or cells: mixed lysate of HeLa cells and placenta; details: 10 μM free compound; mixed HeLa and placenta cell lysates
Experimental: as §1, §2

[4] = target: T4, Erk2 (Homo sapiens, UniProt P28482); test: as above; details: 10 μM free compound; mixed HeLa and placenta cell lysates
T4 construct: endogenous in cells; host or cells: mix of HeLa cell lysate and placenta lysate
Experimental: as §1
(§3) Cells were homogenized in a Potter S homogenizer in lysis buffer: 50 mM Tris-HCl, 0.8% NP40, 5% glycerol, 150 mM NaCl, 1.5 mM MgCl2, 25 mM NaF, 1 mM sodium vanadate, 1 mM DTT, pH 7.5. One complete EDTA-free tablet (protease inhibitor cocktail, Roche Diagnostics, 1 873 580) per 25 ml buffer was added. The material was dounced 20 times using a mechanized POTTER S, transferred to 50 ml falcon tubes, incubated for 30 minutes rotating at 4° C. and spun down for 10 minutes at 20,000×g at 4° C. (10,000 rpm in Sorvall SLA600, precooled). The supernatant was transferred to an ultracentrifuge (UZ)-polycarbonate tube (Beckmann, 355654) and spun for 1 hour at 145.000×g at 4° C. (40.000 rpm in Ti50.2, precooled). The supernatant was transferred again to a fresh 50 ml falcon tube, the protein concentration was determined by a Bradford assay (BioRad) and samples containing 50 mg of protein per aliquot were prepared. The samples were immediately used for experiments or frozen in liquid nitrogen and stored frozen at −80° C.
(§4) Sepharose-beads with the immobilized compound (100 μl beads per pull-down experiment) were equilibrated in lysis buffer and incubated with a cell lysate sample containing 50 mg of protein on an end-over-end shaker (Roto Shake Genie, Scientific Industries Inc.) for 2 hours at 4° C. Beads were collected, transferred to Mobicol-columns (MoBiTech 10055) and washed with 10 ml lysis buffer containing 0.4% NP40 detergent, followed by 5 ml lysis buffer containing 0.2% detergent. To elute bound proteins, 60 μl 2×SDS sample buffer was added to the column. The column was incubated for 30 minutes at 50° C. and the eluate was transferred to a siliconized microfuge tube by centrifugation. Proteins were then alkylated with 108 mM iodoacetamid. Proteins were then separated by SDS-Polyacrylamide electrophoresis (SDS-PAGE).
(§5) Gel-separated proteins were digested in-gel essentially following a previously described procedure (Shevchenko et al., 1996, Anal. Chem. 68:850-858). Briefly, gel-separated proteins were excised from the gel using a clean scalpel, destained twice using 100 μl 5 mM triethylammonium bicarbonate buffer (TEAB; Sigma T7408) and 40% ethanol in water and dehydrated with absolute ethanol. Proteins were subsequently digested in-gel with porcine trypsin (Promega) at a protease concentration of 10 ng/μl in 5 mM TEAB. Digestion was allowed to proceed for 4 hours at 37° C. and the reaction was subsequently stopped using 5 μl 5% formic acid.
(§6) Gel plugs were extracted twice with 20 μl 1% formic acid and three times with increasing concentrations of acetonitrile. Extracts were subsequently pooled with acidified digest supernatants and dried in a vacuum centrifuge. […]

[5] = target: T5, TNK1 (Homo sapiens, UniProt Q13470); test: as above; details: 10 μM free compound; mixed HeLa and placenta cell lysates
T5 construct: endogenous in cells; host or cells: mix of HeLa cell lysate and placenta lysate
Experimental: as §1, §3, §4, §5, §6

[6] = target: T6, AurA (Homo sapiens, UniProt O14965); test: as above; details: 10 μM free compound; mixed HeLa and placenta cell lysates
T6 construct: endogenous in cells; host or cells: mixed lysate of HeLa cells and placenta
Experimental: as §1, §3, §4, §5, §6

[7] = target: T7, PIK3Ca (Homo sapiens, UniProt P42336); test: as above; details: 10 μM free compound; mixed HeLa and placenta cell lysates
T7 construct: endogenous in cells; host or cells: mix of HeLa cell lysate and placenta lysate
Experimental: as §1, §3, §4, §5, §6

[8] = target: T8, JNK2 (Homo sapiens, UniProt P45984); test: as above; details: 10 μM free compound; mixed HeLa and placenta cell lysates
T8 construct: endogenous in cells; host or cells: mixed lysate of HeLa cells and placenta
Experimental: as §1, §3, §4, §5, §6

[9] = target: T9, MLKL (Homo sapiens, UniProt Q8NB16); test: as above; details: 10 μM free compound; mixed HeLa and placenta cell lysates
T9 construct: endogenous in cells; host or cells: mix of HeLa cell lysate and placenta lysate
T9 sequence (Q8NB16 whole entry): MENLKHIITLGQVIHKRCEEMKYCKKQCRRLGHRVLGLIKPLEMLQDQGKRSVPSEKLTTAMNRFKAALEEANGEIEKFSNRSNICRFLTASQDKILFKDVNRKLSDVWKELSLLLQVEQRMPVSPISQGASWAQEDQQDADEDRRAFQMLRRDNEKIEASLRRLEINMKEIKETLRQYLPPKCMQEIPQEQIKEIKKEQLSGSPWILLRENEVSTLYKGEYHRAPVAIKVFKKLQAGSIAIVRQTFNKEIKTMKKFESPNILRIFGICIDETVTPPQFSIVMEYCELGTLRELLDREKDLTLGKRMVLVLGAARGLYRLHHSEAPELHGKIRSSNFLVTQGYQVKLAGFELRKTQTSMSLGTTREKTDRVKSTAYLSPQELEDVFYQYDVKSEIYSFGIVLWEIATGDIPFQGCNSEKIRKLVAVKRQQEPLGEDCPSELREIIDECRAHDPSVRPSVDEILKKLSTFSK
Experimental: as §1, §3, §4, §5, §6

[10] = target: T10, MAP3K6 (Homo sapiens, UniProt O95382); test: as above; details: 10 μM free compound; mixed HeLa and placenta cell lysates
T10 construct: endogenous in cells; host or cells: mixed lysate of HeLa cells and placenta
Experimental: as §1, §3, §4, §5, §6

[11] = target: MAP3K1 (Homo sapiens, UniProt Q13233); test: Kinobeads competition binding, immobilized CZC31207, Jurkat/Ramos lysate mix; set-up: endogenous in cells; host or cells: mixed lysate of Jurkat and Ramos cells; details: 10 μM free compound; mix of Jurkat and Ramos cell lysates
Experimental: (§7) To the first aliquot of cell lysate 10 μM of the free compound CZC31207 was added and allowed to bind to proteins in the lysate. Then the affinity matrix with the immobilized compound was added to capture proteins that were not interacting with the previously added free compound. Beads were separated from the lysate and bead bound proteins were eluted in SDS sample buffer and subsequently separated by SDS-Polyacrylamide gel electrophoresis (FIG. 5). Suitable gel bands were cut out and subjected to in-gel proteolytic digestion with trypsin. The second lysate aliquot was processed identically, however no free compound was added (DMSO solvent control). Peptides originating from samples 1 and 2 were labeled with iTRAQ reagents (iTRAQ 114 and iTRAQ 116) and the combined samples were analyzed with a nano-flow liquid chromatography system coupled online to a tandem mass spectrometer (LC-MS/MS) experiment followed by iTRAQ reporter ion quantification in the MS/MS spectra as described in Example 2.
(§8) Jurkat cells (ATCC number T1B-152) and Ramos cells (ATCC number CRL-1596) were either obtained from an external supplier (CIL SA, Mons, Belgium) or grown in one litre Spinner flasks (Integra Biosciences, #182101) in suspension in RPMI 1640 medium (Invitrogen, #21875-034) supplemented with 10% Fetal Bovine Serum (Invitrogen, #10270-106) at a density between 0.2×10^6 and 1.0×10^6 cells/ml. […]

[12] = target: BCKDK (Homo sapiens, UniProt O14874); test: as above; set-up: endogenous in cells; host or cells: mixed lysate of Jurkat and Ramos cells; details: 10 μM free compound; mix of Jurkat and Ramos cell lysates
Experimental: as §7, §8

[13] = target: T1, DNAPK; test: as above; set-up: endogenous in cells; details: 10 μM free compound; mix of Jurkat and Ramos cell lysates
Experimental: as §7
(§9) Jurkat cells (ATCC number T1B-152) and Ramos cells (ATCC number CRL-1596) were either obtained from an external supplier (CIL SA, Mons, Belgium) or grown in one litre Spinner flasks (Integra Biosciences, #182101) in suspension in RPMI 1640 medium (Invitrogen, #21875-034) supplemented with 10% Fetal Bovine Serum (Invitrogen, #10270-106) at a density between 0.2×10^6 and 1.0×10^6 cells/ml. Cells were harvested by centrifugation, washed once with 1×PBS buffer (Invitrogen, #14190-094) and cell pellets were frozen in liquid nitrogen and subsequently stored at −80° C.
(§10) The identified kinases are shown in Table 5 including the percent competition values for the sample to which 10 μM free compound had been added. In total of 20 different kinases were identified and competed by different degrees.

[14] = target: NEK2 (Homo sapiens, UniProt P51955); test: as above; set-up: endogenous in cells; details: 10 μM free compound; mix of Jurkat and Ramos cell lysates
Experimental: as §7, §9, §10

[15] = target: T2, PIK3Cd; test: as above; set-up: endogenous in cells; details: 10 μM free compound; mix of Jurkat and Ramos cell lysates
Experimental: as §7, §9, §10

[16] = target: PIK3Cb (Homo sapiens, UniProt P42338); test: as above; set-up: endogenous in cells; details: 10 μM free compound; mix of Jurkat and Ramos cell lysates
Experimental: as §7, §9, §10

[17] = target: T3, FRAP; test: as above; set-up: endogenous in cells; details: 10 μM free compound; mix of Jurkat and Ramos cell lysates
Experimental: as §7, §9, §10

[18] = target: PIP5K2C (Homo sapiens, UniProt Q8TBX8); test: as above; set-up: endogenous in cells; details: 10 μM free compound; mix of Jurkat and Ramos cell lysates
Sequence of PIP5K2C (Q8TBX8 whole entry): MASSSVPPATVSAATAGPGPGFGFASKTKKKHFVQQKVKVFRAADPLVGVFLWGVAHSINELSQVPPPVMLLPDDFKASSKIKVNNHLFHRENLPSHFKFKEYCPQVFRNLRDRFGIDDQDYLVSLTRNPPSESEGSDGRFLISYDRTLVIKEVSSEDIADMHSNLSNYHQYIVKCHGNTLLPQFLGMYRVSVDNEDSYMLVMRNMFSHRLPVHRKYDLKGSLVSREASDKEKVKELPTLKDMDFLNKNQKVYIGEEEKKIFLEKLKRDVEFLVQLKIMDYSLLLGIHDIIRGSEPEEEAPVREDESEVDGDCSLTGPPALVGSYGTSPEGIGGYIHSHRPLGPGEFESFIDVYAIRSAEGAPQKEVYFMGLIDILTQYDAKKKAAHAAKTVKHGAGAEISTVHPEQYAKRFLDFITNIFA
Experimental: as §7, §9, §10

[19] = target: PIK3Cg (Homo sapiens, UniProt P48736); test: as above; set-up: endogenous in cells; details: 10 μM free compound; mix of Jurkat and Ramos cell lysates
Experimental: as §7, §9, §10

Q: Which results are given for `CC(C)NS(=O)(=O)c1cncc(-c2ccc3nc(NC(=O)NCCN)nn3c2)c1` [CZC31207, 5-(2-(3-(2-aminoethyl)ureido)-[1,2,4]triazolo[1,5-a]pyridin-6-yl)-N-isopropylpyridine-3-sulfonamide]?
A: Competition % DNAPK [1]: 35.3%; Competition % PIK3Cd [2]: 83.6%; Competition % FRAP [3]: 25.9%; Competition % Erk2 [4]: −2.9%; Competition % TNK1 [5]: −1.9%; Competition % AurA [6]: 12.8%; Competition % PIK3Ca [7]: 68.6%; Competition % JNK2 [8]: 24.6%; Competition % MLKL [9]: 34.2%; Competition % MAP3K6 [10]: 10.3%; Competition % MAP3K1 [11]: 14.1%; Competition % BCKDK [12]: −0.1%; Competition % DNAPK [13]: 38.2%; Competition % NEK2 [14]: 17%; Competition % PIK3Cd [15]: 91.3%; Competition % PIK3Cb [16]: 94.8%; Competition % FRAP [17]: −87.1%; Competition % PIP5K2C [18]: 75.5%; Competition % PIK3Cg [19]: 91.5%
